Among the data in patent US10421718B2, “EBNA1 inhibitors and their method of use” (priority 2013, dated 2019) are IC50 values, retold here.

As usually defined, the IC50 is the concentration needed to halve the response being measured. Low values mean greater potency, high ones weaker potency.

T1 sequence (P03211 459-607): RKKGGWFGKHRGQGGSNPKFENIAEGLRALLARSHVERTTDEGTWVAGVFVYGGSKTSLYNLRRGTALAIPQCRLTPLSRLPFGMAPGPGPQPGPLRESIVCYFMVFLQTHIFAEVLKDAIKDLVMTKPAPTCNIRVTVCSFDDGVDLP

This test concerns the target T1, His-EBNA1 (DNA binding domain of EBNA1, amino acids 459-607) (Epstein-Barr virus, UniProt P03211).
T1 construct: made in house; host or cells: E. coli
Nature of the test: Inhibition of 5′-biotin-oPL4624 binding to His-EBNA1 using Alpha Screen technology. The note with it: Alpha Screen Activity (IC50, inhibition of 5′-biotin-oPL4624 binding to His-EBNA1), 15 nM His-EBNA1, 0.2 nM bt-oPL4624, 2 hr room temperature. The method, boiled down: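 AlphaScreen signal (680 nm ex, 570 nm em) after a 2-h room-temperature incubation, normalized to no-EBNA1 (100% inhibition) and EBNA1 (0%) values and fit to a one-site curve. Final conditions: 15 nM His-EBNA1 (aa 459-607), 0.2 nM bt-oPL4624, Tris pH 7.2 buffer with 160 mM NaCl, compound 3.2 nM to 100 μM.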
A general note: Bead proximity is the source of the signal in Alpha formats.
`O=C(O)c1cccc(C#Cc2ccncc2)c1-c1cn[nH]c1` [Entry 188, 2-(1H-pyrazol-4-yl)-3-pyridin-4-ylethynyl-benzoic acid] had an IC50 of 100 to 1000 µM.
Compound `Cc1noc(C)c1-c1c(C#Cc2ccncc2)cccc1C(=O)O` [Entry 189, 2-(3,5-dimethyl-isoxazol-4-yl)-3-pyridin-4-ylethynyl-benzoic acid] came in with an IC50 of 10 to 100 µM.
`Cc1nn(C)c(C)c1-c1c(C#Cc2ccccc2)cccc1C(=O)O` [Entry 190, 3-phenylethynyl-2-(1,3,5-trimethyl-1H-pyrazol-4-yl)-benzoic acid]: the IC50 fell in the range of 100 to 1000 µM.
For the compound `Cc1ccc(C)n1-c1c(C#CC(C)(C)O)cccc1C(=O)O` [Entry 191, 2-(2,5-dimethyl-pyrrol-1-yl)-3-(3-hydroxy-3-methyl-but-1-ynyl)-benzoic acid], the concentration for half-maximal inhibition (IC50) lay within 10 to 100 µM.
`Cc1ccc(C)n1-c1c(C#Cc2ccncc2)cccc1C(=O)O` [Entry 192, 2-(2,5-dimethyl-pyrrol-1-yl)-3-pyridin-4-ylethynyl-benzoic acid] showed a half-maximal inhibitory concentration (IC50) of 10 to 100 µM.
`Cc1ccc(C)n1-c1c(C#Cc2cccc(C(N)=O)c2)cccc1C(=O)O` [Entry 193, 3-(3-carbamoyl-phenylethynyl)-2-(2,5-dimethyl-pyrrol-1-yl)-benzoic acid] displayed an IC50 of 1 to 10 µM.
For `Cc1ccc(C)n1-c1c(C#Cc2cccc(C(=O)O)c2)cccc1C(=O)O` [Entry 194, 3-(3-carboxy-phenylethynyl)-2-(2,5-dimethyl-pyrrol-1-yl)-benzoic acid] the value was below 1 µM; for `Cc1ccc(C)n1-c1c(C#Cc2cccc(CO)c2)cccc1C(=O)O` [Entry 195, 2-(2,5-dimethyl-pyrrol-1-yl)-3-(3-hydroxymethyl-phenylethynyl)-benzoic acid], 10 to 100 µM.
`Cc1ccc(C)n1-c1c(C#Cc2c[nH]c3ncccc23)cccc1C(=O)O` [Entry 196, 2-(2,5-dimethyl-pyrrol-1-yl)-3-(1H-pyrrolo[2,3-b]pyridin-3-ylethynyl)-benzoic acid] came in with an IC50 of 1 to 10 µM.
`Cc1ccc(C)n1-c1c(C#CC(O)c2ccccc2)cccc1C(=O)O` (stereo not drawn) [Entry 197, 2-(2,5-dimethyl-pyrrol-1-yl)-3-(3-hydroxy-3-phenyl-prop-1-ynyl)-benzoic acid] registered a concentration for half-maximal inhibition (IC50) of 10 to 100 µM.
In turn, `CC(=O)Nc1cccc(C#Cc2cccc(C(=O)O)c2-n2c(C)ccc2C)c1` [Entry 198, 3-(3-acetylamino-phenylethynyl)-2-(2,5-dimethyl-pyrrol-1-yl)-benzoic acid] showed a concentration for half-maximal inhibition (IC50) of 10 to 100 µM.
In turn, `Cc1ccc(C)n1-c1c(C#CC2CC2)cccc1C(=O)O` [Entry 199, 3-cyclopropylethynyl-2-(2,5-dimethyl-pyrrol-1-yl)-benzoic acid] had a half-maximal inhibitory concentration (IC50) of 1 to 10 µM.
For `COc1cccc(C#Cc2cccc(C(=O)O)c2-n2c(C)ccc2C)c1` [Entry 200, 2-(2,5-dimethyl-pyrrol-1-yl)-3-(3-methoxy-phenylethynyl)-benzoic acid] the value was 1 to 10 µM.
With `O=C(O)c1cccc(C#Cc2ccccc2)c1-c1ccc2cn[nH]c2c1` [Entry 201, 2-(1H-indazol-6-yl)-3-phenylethynyl-benzoic acid], the IC50 was 10 to 100 µM.
Take `O=C(O)c1cccc(C#Cc2ccccc2)c1-c1ccc2c(c1)OCO2` [Entry 202, 2-benzo[1,3]dioxol-5-yl-3-phenylethynyl-benzoic acid]: the IC50 was 10 to 100 µM.
For `O=C(O)c1cccc(C#Cc2ccccc2)c1-c1ccc2cnccc2c1` [Entry 203, 2-isoquinolin-6-yl-3-phenylethynyl-benzoic acid] the value was 10 to 100 µM; for `O=C(O)c1cccc(C#Cc2ccccc2)c1-c1cc2ccccc2o1` [Entry 204, 2-benzofuran-2-yl-3-phenylethynyl-benzoic acid], 1 to 10 µM.
Turning to `O=C(O)c1cccc(C#Cc2ccccc2)c1-c1cccc2cccnc12` [Entry 205, 3-phenylethynyl-2-quinolin-8-yl-benzoic acid], the IC50 was 10 to 100 µM.
The value for `Nc1ncc(-c2c(C#Cc3ccccc3)cccc2C(=O)O)cn1` [Entry 206, 2-(2-amino-pyrimidin-5-yl)-3-phenylethynyl-benzoic acid] was 100 to 1000 µM; that for `CN(C)Cc1ccc(-c2c(C#Cc3ccccc3)cccc2C(=O)O)cc1` [Entry 207, 4′-dimethylaminomethyl-6-phenylethynyl-biphenyl-2-carboxylic acid] was 100 to 1000 µM; that for `Nc1ccc(C#Cc2cccc(C(=O)O)c2-c2ccc3cc[nH]c3c2)cc1` [Entry 208, 3-(4-amino-phenylethynyl)-2-(1H-indol-6-yl)-benzoic acid] was 1 to 10 µM.
For `O=C(O)c1ccc(C#Cc2cccc(C(=O)O)c2-c2ccc3cc[nH]c3c2)cc1` [Entry 209, 3-(4-carboxy-phenylethynyl)-2-(1H-indol-6-yl)-benzoic acid] the value was below 1 µM.
The compound `COc1ccc(C#Cc2cccc(C(=O)O)c2-c2ccc3cc[nH]c3c2)cc1` [Entry 210, 2-(1H-indol-6-yl)-3-(4-methoxy-phenylethynyl)-benzoic acid] showed an IC50 of 1 to 10 µM.
For `NC(=O)c1ccc(C#Cc2cccc(C(=O)O)c2-c2ccc3cc[nH]c3c2)cc1` [Entry 211, 3-(4-carbamoyl-phenylethynyl)-2-(1H-indol-6-yl)-benzoic acid] the value was 1 to 10 µM; for `O=C(O)c1cccc(C#Cc2ccc(C(=O)N3CCNCC3)cc2)c1-c1ccc2cc[nH]c2c1` [Entry 212, 2-(1H-indol-6-yl)-3-[4-(piperazine-1-carbonyl)-phenylethynyl]-benzoic acid], 1 to 10 µM.
Compound `CC(=O)Nc1ccc(C#Cc2cccc(C(=O)O)c2-c2ccc3cc[nH]c3c2)cc1` [Entry 213, 3-(4-acetylamino-phenylethynyl)-2-(1H-indol-6-yl)-benzoic acid] registered a half-maximal inhibitory concentration (IC50) of 10 to 100 µM.
Consider `O=C(Nc1ccc(C#Cc2cccc(C(=O)O)c2-c2ccc3cc[nH]c3c2)cc1)c1cccnc1` [Entry 214, 2-(1H-indol-6-yl)-3-{4-[(pyridine-3-carbonyl)-amino]phenylethynyl}-benzoic acid], for which the IC50 is below 1 µM.
The value for `CS(=O)(=O)Nc1ccc(C#Cc2cccc(C(=O)O)c2-c2ccc3cc[nH]c3c2)cc1` [Entry 215, 2-(1H-indol-6-yl)-3-(4-methanesulfonylamino-phenylethynyl)-benzoic acid] was 1 to 10 µM; that for `O=C(O)c1cccc(C#Cc2ccc(NS(=O)(=O)c3cccs3)cc2)c1-c1ccc2cc[nH]c2c1` [Entry 216, 2-(1H-indol-6-yl)-3-[4-(thiophene-2-sulfonylamino)-phenylethynyl]-benzoic acid] was 1 to 10 µM.
Take `COC(=O)c1c[nH]c2cc(-c3c(C#Cc4cscn4)cccc3C(=O)O)ccc12` [Entry 217, 2-(3-(Methoxycarbonyl)-1H-indol-6-yl)-3-(thiazol-4-ylethynyl)benzoic acid]: the IC50 lay in the range of 1 to 10 µM.
`O=C(O)c1cccc(C#Cc2cscn2)c1-c1ccc2cc[nH]c2c1` [Entry 218, 2-(1H-indol-6-yl)-3-(thiazol-4-ylethynyl)benzoic acid] came in with a half-inhibitory concentration (IC50) of 10 to 100 µM.
For `Cn1cc(-c2c(C#Cc3cscn3)cccc2C(=O)O)cn1` [Entry 219, 2-(1-methyl-1H-pyrazol-4-yl)-3-(thiazol-4-ylethynyl)benzoic acid] the value was 10 to 100 µM.
`Cn1cc(-c2c(C#Cc3cccc(O)c3)cccc2C(=O)O)cn1` [Entry 220, 3-((3-hydroxyphenyl)ethynyl)-2-(1-methyl-1H-pyrazol-4-yl)benzoic acid] showed an IC50 of 1 to 10 µM.
